Results from BindingDB's records for doi:10.3109/14756366.2012.688042 (Ondokuz Mayis University, 2013).

How the values were obtained:
[1] = target: T1, Glutathione reductase, mitochondrial (Homo sapiens, UniProt P00390); test: Glutathione Reductase Activity Assay; settings: pH 8
T1 sequence (P00390 whole entry): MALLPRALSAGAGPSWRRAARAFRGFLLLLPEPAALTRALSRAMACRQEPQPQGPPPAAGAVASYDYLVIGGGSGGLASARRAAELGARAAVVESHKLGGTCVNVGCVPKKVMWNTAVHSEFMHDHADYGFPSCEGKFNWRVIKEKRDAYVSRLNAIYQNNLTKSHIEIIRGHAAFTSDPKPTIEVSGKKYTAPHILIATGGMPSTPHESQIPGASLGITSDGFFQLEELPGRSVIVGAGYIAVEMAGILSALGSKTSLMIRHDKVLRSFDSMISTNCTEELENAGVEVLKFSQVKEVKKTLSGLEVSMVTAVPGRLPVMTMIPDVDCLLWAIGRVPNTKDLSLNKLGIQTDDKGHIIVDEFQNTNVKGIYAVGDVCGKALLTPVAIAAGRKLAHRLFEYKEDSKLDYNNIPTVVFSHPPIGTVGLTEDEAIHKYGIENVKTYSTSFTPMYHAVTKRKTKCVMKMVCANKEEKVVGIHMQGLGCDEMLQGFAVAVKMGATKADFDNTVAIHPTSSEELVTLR
Procedure: Enzymatic activity was measured by Beutler's method with a Shimadzu Spectrophotometer UV-(1208), at 25°C. The assay system contained 100 mM Tris-HCl buffer pH 8.0, including 0.5 mM EDTA, 3.3 mM GSSG and 0.1 mM NADPH. One enzyme unit is defined as the oxidation of 1 μmol NADPH per min under the assay condition at 25°C.

[2] = target: T2, Glutathione peroxidase 1 (Homo sapiens, UniProt P07203); test: Glutathione Peroxidase Activity Assay; settings: pH 7
T2 sequence (P07203 whole entry): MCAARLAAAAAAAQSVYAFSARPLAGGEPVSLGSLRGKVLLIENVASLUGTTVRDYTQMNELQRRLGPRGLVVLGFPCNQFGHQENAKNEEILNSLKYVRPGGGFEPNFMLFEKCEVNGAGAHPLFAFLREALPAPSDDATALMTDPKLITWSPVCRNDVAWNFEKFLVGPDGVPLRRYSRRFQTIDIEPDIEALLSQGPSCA
Procedure: Glutathione peroxidase was assayed in a l-ml system containing 0.1 M potassium phosphate buffer, pH 7.0, 0.2 mM NADPH, 1 i.u. glutathione reductase, 4 mM GSH,4 mM EDTA, 4 mM sodium azide. The reaction mixture was incubated at 37°C for 10 min after which 10 μl of 10 mM t-butyl hydroperoxide were added to start the reaction. No t-butyl hydroperoxide was added to the blank cuvette. The rate of reaction was measured at 37°C by following the decrease in the absorbance at 340 nm using a spectrophotometer.

[3] = target: T3, Microsomal glutathione S-transferase 1 (Homo sapiens, UniProt P10620); test: Glutathione S-transferase Activity Assay; settings: pH 6.5
T3 sequence (P10620 whole entry): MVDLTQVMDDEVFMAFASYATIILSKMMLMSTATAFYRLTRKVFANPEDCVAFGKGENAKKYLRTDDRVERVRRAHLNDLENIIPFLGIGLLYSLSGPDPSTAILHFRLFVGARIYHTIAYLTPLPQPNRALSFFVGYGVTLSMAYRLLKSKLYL
Procedure: Enzymatic activity was determined spectrophotometrically by measuring the conjugation of CDNB with GSH. The 1 ml assay mixture contained 0.5 mM CDNB, 1 mMGSH, and 100 mM potassium phosphate buffer, pH 6.5. The rate of increase in absorbance at 340 nm was measured for 5 mm at 37°C against a blank containing thereaction mixture without enzyme.

Row | Structure (SMILES) | IC50 [1] | Ki [1] | IC50 [2] | Ki [2] | IC50 [3] | Ki [3]
1 | CO/N=C(\C(=O)N[C@@H]1C(=O)N2C(C(=O)O)=C(COC(N)=O)CS[C@H]12)c1ccco1 [640/359] | 18.8 µM | 10.4 µM | 44.3 µM | 32.7 µM | 56.4 µM | 32.4 µM
2 | CO/N=C(\C(=O)N[C@@H]1C(=O)N2C(C(=O)O)=C(CSc3nc(=O)c(=O)[nH]n3C)CS[C@H]12)c1csc(N)n1 [(6R,7R)-7-{2-(2-Amino-thiazol-4-yl)-2-[(Z)-methoxyimino]-acetylamino}-3-(2-methyl-5,6-dioxo-1,2,5,6-tetrahydro-[1,2,4]triazin-3-ylsulfanylmethyl)-8-oxo-5-thia-1-aza-bicyclo[4.2.0]oct-2-ene-2-carboxylic acid] | 21.3 µM | 17.3 µM | 48.6 µM | 34.1 µM | 61.8 µM | 35.4 µM
3 | CCN1CCN(C(=O)N[C@@H](C(=O)N[C@@H]2C(=O)N3C(C(=O)O)=C(CSc4nnnn4C)CS[C@H]23)c2ccc(O)cc2)C(=O)C1=O [CEFOPERAZONE] | 48.4 µM | 28.7 µM | 313 µM | 245 µM | 484 µM | 267 µM
4 | CO/N=C(\C(=O)N[C@@H]1C(=O)N2C(C(=O)O)=CCS[C@H]12)c1csc(N)n1 [Ceftizoxime] | 39.7 µM | 22.8 µM | 186 µM | 121 µM | 278 µM | 165 µM
